Assay results taken from PMC12750995, “Conformational Dynamics in the Cell Membrane Interactions of Bispecific Targeted Degrader Therapeutics” (Journal of Medicinal Chemistry, 2025).

What was measured:
in vitro = conditions: human, pH 7.4, n = 3
Method: Binding to the cell homogenate was determined at 0.1 μM for all compounds. A Rapid Equilibrium Dialysis device (Thermo Fisher, Waltham, Massachusetts) was used to dialyze the samples by adding 200 μL of the compound-spiked cell homogenate to one chamber and 350 μL of HBSS/HEPES to the other chamber. The cassette was incubated on an Eppendorf ThermoMixer C (Hamburg, Germany) at 900 rpm for 4 h at 37 °C.

HEK293 cell homogenate = assay: Equilibrium dialysis binding to HEK293 cell homogenate (fraction unbound); assay type: in vitro ADME; conditions: for cell homogenate binding (bound-to-unbound concentration ratio) compared with matched compound: Figure 6G, 11 vs 9, 8 vs 14, 9 vs 16; for fold higher bound-to-unbound concentration ratio than compound 9: comparator compound 9; for fu,hom mass balance: equilibrium dialysis, 0.1 μM
Method: (§1) The unbound fraction of a selected series of PROTACs was determined through equilibrium dialysis against the cell homogenate. HEK293 cells (ATCC, Manassas, VA) were grown in Dulbecco’s modified Eagle’s medium (DMEM) supplemented with 10% fetal bovine serum (FBS) at 37 °C, 95% relative humidity, and 5% CO2. Cell pellets were harvested using 0.05% trypsin and centrifuged at 260g for 5 min. The cells were resuspended in Dulbecco’s phosphate buffer (DPBS), counted using a Luna II cell counter (Logos Biosystems, Anyang, South Korea) and centrifuged at 260g. The supernatant was discarded, and cell pellets were stored at −80 °C prior to cell homogenate preparation. On the day of the experiment, cell pellets were thawed and resuspended in Hank’s balanced salt solution (HBSS) buffered with 20 mM HEPES (pH 7.4) to a concentration of 10 × 10^6 cells/mL. The cell suspension was homogenized using ultrasonication for 10 s at 20% intensity while kept on ice.
(§2) Compound stability was assessed by adding the compound-spiked cell homogenate to an empty well in the dialysis cassette. At the end of the experiment, these concentrations were compared to identical control samples stored at 4 °C. Mass balance was calculated at the end of each experiment. Further, in all wells, two control compounds (atorvastatin and lopinavir) were included to ensure that the assay plate was functional. All compounds were tested in triplicate in one experiment. Compound 2 was only detected on the cell homogenate side, and thus, the concentration on the buffer side was set to half of the lower limit of quantification to allow calculation of an approximate cell homogenate binding.
(§3) Final samples were matrix matched by taking 1 part sample and 1 part blank cell homogenate or buffer. Proteins were precipitated using 1 part matrix matched sample and 3 parts acetonitrile supplemented with 0.3% formic acid (FA) and 5 nM verapamil (internal standard), and this was diluted 1:1 with Milli-Q prior to centrifugation at 2500g for 20 min. Compound concentrations in the supernatant were quantified using a reversed phase system with a Waters Acquity UPLC HSS T3 column (50 × 2.1 mm, 1.8 μm) in an Aquity UPLC connected to a Xevo TQ-XS mass spectrometer (Waters Corp., Milford, MA). The chromatographic run was done using solvent A (0.1% FA in Milli-Q) and solvent B (0.1% FA in acetonitrile Optima LC/MS grade (Fisher Scientific)) with isocratic conditions between 0 and 0.3 min (99.8% solvent A and 0.2% solvent B), a linear gradient between 0.3 and 1.3 min (from 0.2% to 95% solvent B), isocratic conditions between 1.3 and 1.8 min (95% solvent B), and equilibration back to start conditions between 1.8 and 2.3 min. Mass transitions, cone voltages, and collision energies can be found in Table S4.

[1] = Caco-2 A-B passive permeability with preincubation, transporter-inhibited; assay type: in vitro ADME; conditions: human, Caco-2, with 50 μM quinidine, 30 μM benzbromarone, 20 μM sulfasalazine; Figure 3A grouping; read-out: Passive Caco-2 cell permeability group (high, moderate or low)
Method: (§4) Transepithelial transport of the compounds through a Caco-2 monolayer (ATCC, HTB-37) was determined in 14–18 days old monolayers in Costar 24-well cell culture cluster plates (polycarbonate membrane, 0.4 μm pore size). Chamber volumes were 200 and 800 μL on the apical and basolateral sides of the cell monolayers, respectively, and all incubations were performed with prewarmed buffers in an orbital shaking incubator at 480 rpm and 37 °C. Prior to the assay, cells were washed with HBSS supplemented with 25 mM HEPES (HBSS-HEPES), pH 7.4, to remove the culture medium. After 15 min of equilibration, the transepithelial electrical resistance (TEER) was determined to assess acceptance of the cell plates into the assay. A second measurement and a lucifer yellow leakage determination was carried out after performing all the transport experiments to monitor integrity of the cell monolayers throughout the study.
(§5) Before the permeability study, to minimize nonspecific binding of PROTACs to the cells and plates, the cells were preincubated with 10 μM compound solution on the apical (donor) side for 1 h, analogous to Muschong et al. Then, cells were washed twice with HBSS-MES pH 6.5 containing 1% BSA. Then, permeability in the absorptive direction (A–B, apical-to-basolateral) was studied over 120 min at a 10 μM test compound concentration. The compound solutions were freshly prepared from DMSO stock solutions diluted into HBSS supplemented with 25 mM MES, pH 6.5, containing efflux inhibitors (50 μM quinidine, 30 μM benzbromarone, and 20 μM sulfasalazine); the final solvent concentration was always 0.5%.
(§6) Samples from the donor side (10 μL) were drawn immediately after the addition of the test compound and after 45 and 120 min. The donor samples were diluted 1:10 in HBSS. From the receiver compartment, an amount of 100 μL was withdrawn after 45 and 120 min and replaced with fresh HBSS-HEPES, pH 7.4.
(§7) Upon completion of the study, all samples were quenched with 300 μL of acetonitrile and analyzed subsequently using UPLC/MS/MS. The permeability was determined as the appearance rate of the compound on the receiver side, in relation to donor concentration, according to eq 4 Papp=dQ/[(dt)(T)]×A/D where dQ/[(dt)(T)] is the slope of the permeation profile across the Caco-2 cell monolayers, A is the surface area of the Transwell insert (0.33 cm^2), and D is the concentration on the donor side. Following the permeability experiments, recovery from the donor and receiver compartments was calculated using eq 5 recovery(%)(0−120min)=CR120×VR+CR45×0.1+CD45×0.01+CD120×VD/D0×VD×100

[2] = Equilibrium dialysis binding to HEK293 cell homogenate (fraction unbound); assay type: in vitro ADME; conditions: human, pH 7.4; fraction unbound in HEK293 cell homogenate, 10 × 10^6 cells/mL, 0.1 μM, 4 h, 37 °C; read-out: fu,hom
Method: as §1, §2, §3

Caco-2 monolayer = assay: Caco-2 A-B passive permeability with preincubation, transporter-inhibited; assay type: in vitro ADME; conditions: recovery from donor and receiver compartments, 0-120 min
Method: as §4, §5, §6, §7

Row | fraction unbound at 4 h, 0.1 μM (in vitro; HEK293 cell homogenate) | Papp A→B at 120 min, 10 μM [1] | Compound | other results
1 | 0.182 | – | Cc1sc2c(c1C)C(c1ccc(Cl)cc1)=N[C@@H](CC(=O)N1CCN(c3cccc4c3C(=O)N(C3CCC(=O)NC3=O)C4=O)CC1)c1nnc(C)n1-2 (stereo partly drawn) [Compound 15, 4-(4-(2-((6S)-4-(4-Chlorophenyl)-2,3,9-trimethyl-6H-thieno[3,2-f][1,2,4]triazolo[4,3-a][1,4]diazepin-6-yl)acetyl)piperazin-1-yl)-2-(2,6-dioxopiperidin-3-yl)isoindoline-1,3-dione] | –
2 | 0.007 | – | Cc1sc2c(c1C)C(c1ccc(Cl)cc1)=N[C@@H](CC(=O)NC[C@@H]1CCC[C@H](CNc3cccc4c3C(=O)N(C3CCC(=O)NC3=O)C4=O)C1)c1nnc(C)n1-2 (mixture of isomers) [Compound 12, 2-((6S)-4-(4-Chlorophenyl)-2,3,9-trimethyl-6H-thieno[3,2-f][1,2,4]triazolo[4,3-a][1,4]diazepin-6-yl)-N-(((1RS,3SR)-3-(((2-(2,6-dioxopiperidin-3-yl)-1,3-dioxoisoindolin-4-yl)amino)methyl)cyclohexyl)methyl)acetamide] | –
3 | 0.5 | – | Cc1sc2c(c1C)C(c1ccc(Cl)cc1)=N[C@@H](CC(=O)NCCOCCNC(=O)COc1cccc3c1C(=O)N(C1CCC(=O)NC1=O)C3=O)c1nnc(C)n1-2 (stereo partly drawn) [Compound 16, 2-((6S)-4-(4-Chlorophenyl)-2,3,9-trimethyl-6H-thieno[3,2-f][1,2,4]triazolo[4,3-a][1,4]diazepin-6-yl)-N-(2-(2-(2-((2-(2,6-dioxopiperidin-3-yl)-1,3-dioxoisoindolin-4-yl)oxy)acetamido)ethoxy)ethyl)acetamide] | –
4 | 0.411 | < 0.5 ×10⁻⁶ cm/s | Cc1sc2c(c1C)C(c1ccc(Cl)cc1)=N[C@@H](CC(=O)NCCCCNC(=O)COc1cccc3c1C(=O)N(C1CCC(=O)NC1=O)C3=O)c1nnc(C)n1-2 (stereo partly shown) [Compound 9] | cell homogenate binding (bound-to-unbound concentration ratio) compared with matched compound (HEK293 cell homogenate): higher cell homogenate binding than 16
5 | 0.133 | > 10 ×10⁻⁶ cm/s | Cc1sc2c(c1C)C(c1ccc(Cl)cc1)=N[C@@H](CC(=O)NCCCCCCCCNC(=O)COc1cccc3c1C(=O)N(C1CCC(=O)NC1=O)C3=O)c1nnc(C)n1-2 (stereo partly shown) [Compound 8] | cell homogenate binding (bound-to-unbound concentration ratio) compared with matched compound (HEK293 cell homogenate): higher experimental binding than 14; fold higher bound-to-unbound concentration ratio than compound 9 (HEK293 cell homogenate; HEK293 cell homogenate): 4.6 fold
6 | 0.357 | – | Cc1sc2c(c1C)C(c1ccc(Cl)cc1)=N[C@@H](CC(=O)N1CCC(Oc3cccc4c3C(=O)N(C3CCC(=O)NC3=O)C4=O)C1)c1nnc(C)n1-2 (stereo partly drawn) [Compound 17, 4-((1-(2-((6S)-4-(4-Chlorophenyl)-2,3,9-trimethyl-6H-thieno[3,2-f][1,2,4]triazolo[4,3-a][1,4]diazepin-6-yl)acetyl)pyrrolidin-3-yl)oxy)-2-(2,6-dioxopiperidin-3-yl)isoindoline-1,3-dione] | –
7 | 0.432 | – | Cc1sc2c(c1C)C(c1ccc(Cl)cc1)=N[C@@H](CC(=O)NCCOCCOCCNC(=O)COc1cccc3c1C(=O)N(C1CCC(=O)NC1=O)C3=O)c1nnc(C)n1-2 (stereo partly drawn) [Compound 14, 2-((6S)-4-(4-Chlorophenyl)-2,3,9-trimethyl-6H-thieno[3,2-f][1,2,4]triazolo[4,3-a][1,4]diazepin-6-yl)-N-(2-(2-(2-(2-((2-(2,6-dioxopiperidin-3-yl)-1,3-dioxoisoindolin-4-yl)oxy)acetamido)ethoxy)ethoxy)ethyl)acetamide] | –

The remaining lines, values behind:

Row | Compound | fraction unbound at 4 h, 0.1 μM (in vitro; HEK293 cell homogenate) | Papp A→B at 120 min, 10 μM [1] | other results
8 | Cc1sc2c(c1C)C(c1ccc(Cl)cc1)=N[C@@H](CC(=O)NCCCNc1cccc3c1C(=O)N(C1CCC(=O)NC1=O)C3=O)c1nnc(C)n1-2 (stereo partly drawn) [Compound 13, 2-((6S)-4-(4-Chlorophenyl)-2,3,9-trimethyl-6H-thieno[3,2-f][1,2,4]triazolo[4,3-a][1,4]diazepin-6-yl)-N-(3-((2-(2,6-dioxopiperidin-3-yl)-1,3-dioxoisoindolin-4-yl)amino)propyl)acetamide] | – | – | fraction unbound at 4 h, 0.1 μM (in vitro; tissue homogenate): 0.228
9 | Cc1ncsc1-c1ccc(CNC(=O)[C@@H]2C[C@@H](O)CN2C(=O)[C@@H](NC(=O)CCCCNC(=O)C[C@@H]2N=C(c3ccc(Cl)cc3)c3c(sc(C)c3C)-n3c(C)nnc32)C(C)(C)C)cc1 [Compound 11, (2S,4R)-1-((2S)-2-(5-(2-((6S)-4-(4-Chlorophenyl)-2,3,9-trimethyl-6H-thieno[3,2-f][1,2,4]triazolo[4,3-a][1,4]diazepin-6-yl)acetamido)pentanamido)-3,3-dimethylbutanoyl)-4-hydroxy-N-(4-(4-methylthiazol-5-yl)benzyl)pyrrolidine-2-carboxamide] | 0.139 | – | cell homogenate binding (bound-to-unbound concentration ratio) compared with matched compound (HEK293 cell homogenate): higher cell homogenate binding than the CRBN-binding 9; fold higher bound-to-unbound concentration ratio than compound 9 (HEK293 cell homogenate; HEK293 cell homogenate): 3 fold
10 | Cc1ncsc1-c1ccc(CNC(=O)[C@H]2C[C@H](O)CN2C(=O)[C@@H](NC(=O)COCCOCCOCCNC(=O)C[C@@H]2N=C(c3ccc(Cl)cc3)c3c(sc(C)c3C)-n3c(C)nnc32)C(C)(C)C)cc1 [Compound 6] | 0.242 | 0.5 to 10 ×10⁻⁶ cm/s | –
11 | Cc1ccc(C(=O)NCCCCc2cn(CCCC(=O)NCCCCNc3cccc4c3C(=O)N(C3CCC(=O)NC3=O)C4=O)nn2)cc1-n1c(C)cc(OCc2ccc(F)cc2F)c(Br)c1=O (stereo not shown) [Compound 3] | – | < 0.5 ×10⁻⁶ cm/s | fu,hom mass balance (HEK293 cell homogenate; HEK293 cell homogenate): 111%; fraction unbound at 4 h, 0.1 μM [2]: 0.24; Papp Recovery (%) (0-120 min) (Caco-2 monolayer): 94%
12 | COc1cc(-c2cn(C)c(=O)c3cnccc23)cc(OC)c1CN(C)CC(=O)NCCCCCCCCNc1cccc2c1C(=O)N(C1CCC(=O)NC1=O)C2=O (stereo not shown) [Compound 7] | 0.19 | > 10 ×10⁻⁶ cm/s | –
13 | COc1cc2c(Oc3ccc(NC(=O)C4(C(=O)Nc5ccc(F)cc5)CC4)cc3F)ccnc2cc1OCCCCOCCCCOCC(=O)NC(C(=O)N1CC(O)CC1C(=O)NCc1ccc(-c2scnc2C)cc1)C(C)(C)C (stereo not shown) [Compound 1] | – | < 0.5 ×10⁻⁶ cm/s | fu,hom mass balance (HEK293 cell homogenate; HEK293 cell homogenate): 118%; fraction unbound at 4 h, 0.1 μM [2]: 0.011; Papp Recovery (%) (0-120 min) (Caco-2 monolayer): 39%
14 | COc1cc(-c2cn(C)c(=O)c3cnccc23)cc(OC)c1CN(C)CC(=O)NCCOCCOCCNc1cccc2c1C(=O)N(C1CCC(=O)NC1=O)C2=O (stereo not shown) [Compound 10] | – | < 0.5 ×10⁻⁶ cm/s | fold lower bound-to-unbound concentration ratio (membrane binding) than compound 7 (HEK293 cell homogenate; HEK293 cell homogenate, comparator compound 7): 5.3 fold; fraction unbound at 4 h, 0.1 μM (in vitro; tissue homogenate): 0.557
